{"source": "patent US9861706B2", "about": "“GLP-1 receptor agonist peptide gastrin conjugates” (priority 2011, dated 2018)", "molecules": {"B1": {"name": "Compound 38 (peptide)", "peptide": "HGEGTFTSDLSKQLEEEAVRLFIECLKNXXYGWLDF", "modifications": "not fully specified; C(PEG5K) at position 25; 8Ado at positions 29 and 30; C-terminal amide (-NH2)"}}, "key": {"[1]": {"test": "Pharmacokinetics in mice after single subcutaneous dose", "type": "in vivo, C57BI L/6J mice", "settings": "C57BL/6J, mouse, sc", "protocol": "At each time point, samples from two mice were taken. […] Plasma samples were analyzed after solid phase extraction (SPE) by liquid chromatography mass spectrometry (LC-MS/MS)."}, "[2]": {"system": "db/db mice", "test": "Three weeks in vivo db/db mouse study", "protocol": "Treatment Db/db mice were stratified to various treatment groups according to HbA1c levels. Mice were treated once daily with subcutaneous (SC) injections for a total of 21 days. Injection volume was 5 ml/kg. During the study body weights (BW) were recorded daily and used to administer the body weight-corrected doses of peptide. OGTT On day 16, an oral glucose tolerance test was performed in the animals. Blood glucose was measured before glucose (at t=0, baseline) and after glucose administration up to 2 hrs. Termination At termination the blood glucose levels were measured, and blood samples were analyzed for HbA1c levels. Measurements Whole blood glucose concentration (mM) was determined by the immobilized glucose oxidase method (Elite Autoanalyser, Bayer, Denmark). Blood samples were analyzed for HbA1c using the Cobas c111 analyzer (Roche Diagnostics, Mannheim, Germany)."}, "[3]": {"molecular_target": "T1, human CCK-B receptor (human, UniProt P32239 1-447)", "T1 sequence (looked up)": "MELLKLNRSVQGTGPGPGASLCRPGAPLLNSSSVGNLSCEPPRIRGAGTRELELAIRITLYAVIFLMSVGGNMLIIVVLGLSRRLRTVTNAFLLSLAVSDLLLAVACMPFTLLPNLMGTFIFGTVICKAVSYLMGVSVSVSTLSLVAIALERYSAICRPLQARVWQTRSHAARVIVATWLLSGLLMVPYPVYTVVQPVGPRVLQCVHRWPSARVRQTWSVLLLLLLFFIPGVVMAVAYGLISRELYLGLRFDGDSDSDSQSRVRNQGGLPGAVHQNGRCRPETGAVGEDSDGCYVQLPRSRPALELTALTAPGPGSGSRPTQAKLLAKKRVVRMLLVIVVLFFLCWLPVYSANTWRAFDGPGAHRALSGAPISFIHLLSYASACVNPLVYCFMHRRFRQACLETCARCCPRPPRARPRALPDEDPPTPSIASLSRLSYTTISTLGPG", "test": "cell-based or functional assay"}, "[4]": {"molecular_target": "human GLP-1 receptor (human, UniProt P43220 24-463)", "sequence (P43220 24-463)": "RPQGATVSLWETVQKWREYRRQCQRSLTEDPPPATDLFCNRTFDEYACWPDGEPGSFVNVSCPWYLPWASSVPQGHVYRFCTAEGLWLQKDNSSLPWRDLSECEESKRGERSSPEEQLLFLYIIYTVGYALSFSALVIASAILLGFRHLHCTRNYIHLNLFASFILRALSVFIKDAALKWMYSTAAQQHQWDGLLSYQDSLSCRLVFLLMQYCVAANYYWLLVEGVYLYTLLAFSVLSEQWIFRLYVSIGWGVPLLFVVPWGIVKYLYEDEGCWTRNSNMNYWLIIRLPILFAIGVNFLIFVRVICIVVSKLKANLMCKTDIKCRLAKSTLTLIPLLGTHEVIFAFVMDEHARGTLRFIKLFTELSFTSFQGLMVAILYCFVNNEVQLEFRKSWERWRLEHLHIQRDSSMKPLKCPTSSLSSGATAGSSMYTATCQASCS", "test": "cell-based or functional assay"}, "[5]": {"settings": "SC 100 nmol/kg once daily, 21 days treatment"}}, "note": "Where two headings read alike, the source gives them in different places. Square brackets hold non-standard residues; d marks the D form. Ends that are not written are not given here. AEEA = NCCOCCOCC(=O)O"}
{"molecule": "CCCCCCCCCCCCCCCC(=O)N[C@@H](CCC(=O)NCCCC[C@H](NC(=O)[C@H](CCC(=O)O)NC(=O)[C@@H](NC(=O)[C@H](Cc1ccccc1)NC(=O)[C@H](CC(C)C)NC(=O)[C@H](CCCNC(=N)N)NC(=O)[C@@H](NC(=O)[C@H](C)NC(=O)[C@H](CCC(=O)O)NC(=O)[C@H](CCC(=O)O)NC(=O)[C@H](CCC(=O)O)NC(=O)[C@H](CC(C)C)NC(=O)[C@H](Cc1ccc(O)cc1)NC(=O)[C@H](CCCCN)NC(=O)[C@H](CO)NC(=O)[C@H](CC(C)C)NC(=O)[C@H](CCC(=O)O)NC(=O)[C@H](CO)NC(=O)[C@@H](NC(=O)[C@H](Cc1ccccc1)NC(=O)[C@@H](NC(=O)CNC(=O)[C@H](CCC(=O)O)NC(=O)CNC(=O)[C@@H](N)Cc1c[nH]cn1)[C@@H](C)O)[C@@H](C)O)C(C)C)[C@@H](C)CC)C(=O)N[C@@H](CC(C)C)C(=O)N[C@@H](CCCCN)C(=O)NCCOCCOCC(=O)NCCOCCOCC(=O)N[C@@H](Cc1ccc(O)cc1)C(=O)NCC(=O)N[C@@H](Cc1c[nH]c2ccccc12)C(=O)N[C@@H](CC(C)C)C(=O)N[C@@H](CC(=O)O)C(=O)N[C@@H](Cc1ccccc1)C(N)=O)C(=O)O", "note": "[Compound 7]", "values": [{"measurement": "half-life", "setting": "[1]; s.c. administration of 100 nmol/kg in mice, plasma, read-out: T1/2 (converted)", "result": 6.2, "unit": "h"}]}
{"molecule": "CC[C@H](C)[C@H](NC(=O)[C@H](Cc1ccccc1)NC(=O)[C@H](CC(C)C)NC(=O)[C@H](CCCNC(=N)N)NC(=O)[C@@H](NC(=O)[C@H](C)NC(=O)[C@H](CCC(=O)O)NC(=O)[C@H](CCC(=O)O)NC(=O)[C@H](CCC(=O)O)NC(=O)[C@H](CC(C)C)NC(=O)[C@H](Cc1ccc(O)cc1)NC(=O)[C@H](CCCCN)NC(=O)[C@H](CO)NC(=O)[C@H](CC(C)C)NC(=O)[C@H](CCC(=O)O)NC(=O)[C@H](CO)NC(=O)[C@@H](NC(=O)[C@H](Cc1ccccc1)NC(=O)[C@@H](NC(=O)CNC(=O)[C@H](CCC(=O)O)NC(=O)CNC(=O)[C@@H](N)Cc1c[nH]cn1)[C@@H](C)O)[C@@H](C)O)C(C)C)C(=O)N[C@@H](CCC(=O)O)C(=O)N[C@@H](Cc1ccccc1)C(=O)N[C@@H](CC(C)C)C(=O)N[C@@H](CCCCN)C(=O)N[C@@H](CC(=O)O)C(=O)N[C@@H](Cc1ccc(O)cc1)C(=O)NCC(=O)N[C@@H](Cc1c[nH]c2ccccc12)C(=O)N[C@@H](CC(C)C)C(=O)N[C@@H](CC(=O)O)C(=O)N[C@@H](Cc1ccccc1)C(N)=O", "note": "[Compound 12]", "values": [{"measurement": "half-life", "setting": "[1]; in vivo, 100 nmol/kg", "result": 5, "unit": "h"}]}
{"molecule": "CC[C@H](C)[C@H](NC(=O)[C@H](Cc1ccccc1)NC(=O)[C@H](CC(C)C)NC(=O)[C@H](CCCNC(=N)N)NC(=O)[C@@H](NC(=O)[C@H](C)NC(=O)[C@H](CCC(=O)O)NC(=O)[C@H](CCC(=O)O)NC(=O)[C@H](CCC(=O)O)NC(=O)[C@H](CC(C)C)NC(=O)[C@H](Cc1ccc(O)cc1)NC(=O)[C@H](CCCCN)NC(=O)[C@H](CO)NC(=O)[C@H](CC(C)C)NC(=O)[C@H](CCC(=O)O)NC(=O)[C@H](CO)NC(=O)[C@@H](NC(=O)[C@H](Cc1ccccc1)NC(=O)[C@@H](NC(=O)CNC(=O)[C@H](CCC(=O)O)NC(=O)CNC(=O)[C@@H](N)Cc1c[nH]cn1)[C@@H](C)O)[C@@H](C)O)C(C)C)C(=O)N[C@@H](CCC(=O)O)C(=O)N[C@@H](Cc1ccccc1)C(=O)N[C@@H](CC(C)C)C(=O)N[C@@H](CCCCN)C(=O)N[C@@H](CC(=O)O)C(=O)NCCOCCOCC(=O)NCCOCCOCC(=O)N[C@@H](Cc1ccc(O)cc1)C(=O)NCC(=O)N[C@@H](Cc1c[nH]c2ccccc12)C(=O)N[C@@H](CC(C)C)C(=O)N[C@@H](CC(=O)O)C(=O)N[C@@H](Cc1ccccc1)C(N)=O", "note": "[Compound 19]", "values": [{"measurement": "half-life", "setting": "[1]; in vivo, 100 nmol/kg", "result": 2.4, "unit": "h"}]}
{"molecule": "CC[C@H](C)[C@H](NC(=O)[C@H](Cc1ccccc1)NC(=O)[C@H](CC(C)C)NC(=O)[C@H](CCCNC(=N)N)NC(=O)[C@@H](NC(=O)[C@H](C)NC(=O)[C@H](CCC(=O)O)NC(=O)[C@H](CCC(=O)O)NC(=O)[C@H](CCC(=O)O)NC(=O)[C@H](CC(C)C)NC(=O)[C@H](Cc1ccc(O)cc1)NC(=O)[C@H](CCCCN)NC(=O)[C@H](CO)NC(=O)[C@H](CC(C)C)NC(=O)[C@H](CCC(=O)O)NC(=O)[C@H](CO)NC(=O)[C@@H](NC(=O)[C@H](Cc1ccccc1)NC(=O)[C@@H](NC(=O)CNC(=O)[C@H](CCC(=O)O)NC(=O)CNC(=O)[C@@H](N)Cc1c[nH]cn1)[C@@H](C)O)[C@@H](C)O)C(C)C)C(=O)N[C@@H](CCC(=O)O)C(=O)N[C@@H](Cc1c[nH]c2ccccc12)C(=O)N[C@@H](CC(C)C)C(=O)N[C@@H](CCCCN)C(=O)N[C@@H](CC(=O)O)C(=O)N[C@@H](Cc1ccc(O)cc1)C(=O)NCC(=O)N[C@@H](Cc1c[nH]c2ccccc12)C(=O)N[C@@H](CC(C)C)C(=O)N[C@@H](CC(=O)O)C(=O)N[C@@H](Cc1ccccc1)C(N)=O", "note": "[Compound 23]", "values": [{"measurement": "half-life", "setting": "[1]; in vivo, 100 nmol/kg", "result": 6.7, "unit": "h"}, {"measurement": "body weight gain (in words)", "setting": "[2]; 3 week course of the study", "result": "lowered the body weight gain"}, {"measurement": "Fasted BG level (mM)", "setting": "[2]; SC 100 nmol/kg once daily, 16 days treatment", "result": "++ ((++) indicates fasted BG between 6 and 8 mM)"}, {"measurement": "Delta-BW (g)", "setting": "[2]; [5]", "result": "++ ((++) indicates delta BW between 4 and 6 g)"}, {"measurement": "Delta-HbA1c (%)", "setting": "[2]; [5]", "result": "+++ ((+++) indicates delta-HbA1c level below 0%)"}, {"measurement": "OGTT, AUC (mM*min)", "setting": "[2]; SC 100 nmol/kg once daily, after 16 days of treatment", "result": "++ ((++) indicates OGTT AUC between 1000 and 2000M*min)"}, {"measurement": "plasma levels of HbA1c (in words)", "setting": "[2]; after 3 weeks treatment", "result": "lowered the plasma levels of HbA1c"}, {"measurement": "fasting blood glucose levels (in words)", "setting": "[2]; after 16 days treatment", "result": "lowered the fasting blood glucose levels"}, {"measurement": "area under the glucose concentration curve (AUC) following an oral glucose challenge (in words)", "setting": "[2]; day 16", "result": "lowered the area under the glucose concentration curve (AUC)"}]}
{"molecule": "H-HGEGTFTSELSKYLEEEAVRLFIEWLKNYGWLDF-NH2 [Compound 22]", "values": [{"measurement": "half-life", "setting": "[1]; in vivo, s.c. administration of 100 nmol/kg in mice, plasma, read-out: T1/2 (converted)", "result": 8.2, "unit": "h"}]}
{"molecule": "h[Leu15]Gastrin17 (from UniProt P01350 76-92) (peptide)", "values": [{"measurement": "EC50, p-ERK in HEK293 cells stably expressing human CCK-B R", "setting": "[3]", "result": 2.89, "unit": "nM"}]}
{"molecule": "B1", "values": [{"measurement": "EC50, cAMP induction in HEK293 cells expressing human GLP-1 R", "setting": "[4]", "result": 0.037, "unit": "nM"}, {"measurement": "EC50, p-ERK in HEK293 cells stably expressing human CCK-B R", "setting": "[3]", "result": 61, "unit": "nM"}]}
{"molecule": "HGEGTFTSELSKYLEEEAVRLFIEC(PEG20K)LK[AEEA][AEEA]YGWLDF-NH2 (not fully specified)", "note": "[Compound 40]", "values": [{"measurement": "EC50, cAMP induction in HEK293 cells expressing human GLP-1 R", "setting": "[4]", "result": 0.37, "unit": "nM"}, {"measurement": "EC50, p-ERK in HEK293 cells stably expressing human CCK-B R", "setting": "[3]", "result": 133, "unit": "nM"}]}
{"molecule": "HGEGTFTSELSKYLEEEAVRLFIEWLKNYGWLDF-NH2", "note": "[Compound 22]", "values": [{"measurement": "EC50, cAMP induction in HEK293 cells expressing human GLP-1 R", "setting": "[4]", "result": 0.085, "unit": "nM"}, {"measurement": "EC50, p-ERK in HEK293 cells stably expressing human CCK-B R", "setting": "[3]", "result": 31, "unit": "nM"}]}
